Experimental findings from patent US11180504B2 (ORCHID PHARMA LTD., priority 2016, dated 2021) are described below.

≈ marks a conversion by molar mass, not a printed value. Read-outs that look alike come from different tables or passages of the source.

Experiment [1] concerns carbapenem sensitive Escherichia coli. Nature of the experiment: MIC by broth micro-dilution (CLSI), carbapenem sensitive E. coli. Format: cell-based.
In experiment [2] the test system is methicillin-sensitive Staphylococcus aureus. Nature of the experiment: MIC by broth micro-dilution (CLSI), methicillin-sensitive S. aureus. The class given is cell-based. To be noted: MSSA S. aureus ATCC29213. Background: Dilution methods test growth across graded concentrations, often in twofold steps.
Experiment [3] concerns carbapenemase producing K. pneumoniae. Nature of the experiment: MIC by broth micro-dilution (CLSI), carbapenemase producing K. pneumoniae. The class given is cell-based, Klebsiella pneumoniae.
Experiment [4] relates to carbapenem sensitive Pseudomonas aeruginosa. Nature of the experiment: MIC by broth micro-dilution (CLSI), carbapenem sensitive P. aeruginosa. The class given is cell-based.
Where [5] appears, read: Escherichia coli, ATCC25922, ESBL −ve E. coli ATCC25922, read-out: MIC.
[6] abbreviates: Staphylococcus aureus, ATCC 29213 / MSSA, read-out: MIC.
Where [7] appears, read: Klebsiella pneumoniae, ATCCBAA1705, KPC-2 K. pneumoniae ATCC BAA-1705, read-out: MIC.
The mark [8] stands for this setting: Pseudomonas aeruginosa, ATCC27853, Meropenem susceptible P. aeruginosa ATCC27853, read-out: MIC.

As usually defined, the MIC is the lowest concentration that inhibits growth of the organism. With `C[C@@H](NC(=O)Cn1cnnn1)[C@H]1C(=O)N2C(C(=O)O)=C(S[C@@H]3CN[C@H](C(=O)N4CCC(CO)CC4)C3)[C@H](C)[C@H]12` [Example 423, (4R,5S,6R)-6-((R)-1-(2-(1H-tetrazol-1-yl)acetamido)ethyl)-3-((3S,5S)-5-(4-(hydroxymethyl)piperidine-1-carbonyl)pyrrolidin-3-ylthio)-4-methyl-7-oxo-1-azabicyclo[3.2.0]hept-2-ene-2-carboxylic acid], the minimal inhibitory concentration (MIC) in experiment [1] (setting [5]) was determined as 0.5 µg/mL (≈ 0.889 µM); in experiment [2] (setting [6]), 8 µg/mL (≈ 14.2 µM); in experiment [3] (setting [7]) it was 2 µg/mL (≈ 3.55 µM); in experiment [4] (setting [8]), 32 µg/mL (≈ 56.9 µM).

For the compound `C[C@@H](NC(=O)Cn1cnnn1)[C@H]1C(=O)N2C(C(=O)[O-])=C(Sc3cn(C[C@@H]4CCNC4)[n+](C)c3)[C@H](C)[C@H]12` [Example 597, (4R,5S,6R)-6-((R)-1-(2-(1H-tetrazol-1-yl)acetamido)ethyl)-4-methyl-3-(2-methyl-1-((R)-pyrrolidin-3-ylmethyl)-1H-pyrazol-2-ium-4-ylthio)-7-oxo-1-azabicyclo[3.2.0]hept-2-ene-2-carboxylate], the MIC amounted to 4 µg/mL (≈ 7.76 µM) in experiment [1] (setting [5]), 4 µg/mL (≈ 7.76 µM) in experiment [2] (setting [6]), 32 µg/mL (≈ 62.1 µM) in experiment [3] (setting [7]) and 32 µg/mL (≈ 62.1 µM) in experiment [4] (setting [8]).

`C[C@@H](NC(=O)Cn1cnnn1)[C@H]1C(=O)N2C(C(=O)O)=C(S[C@@H]3CN[C@H](C(=O)N4CC5CCNCC5C4)C3)[C@H](C)[C@H]12` (single isomer, unassigned) [Example 528]: the MIC in experiment [1] (ESBL −ve E. coli ATCC25922) came out at 0.25 µg/mL (≈ 0.436 µM); in experiment [2], 4 µg/mL (≈ 6.97 µM); in experiment [3] (KPC-2 K. pneumoniae ATCC BAA-1705) it was 1 µg/mL (≈ 1.74 µM); in experiment [4] (Meropenem susceptible P. aeruginosa ATCC27853), 1 µg/mL (≈ 1.74 µM).

For the compound `C[C@@H](NC(=O)Cn1cnnn1)[C@H]1C(=O)N2C(C(=O)O)=C(S[C@@H]3CN[C@H](C(=O)N4CCN(CCNC(=N)N)CC4)C3)[C@H](C)[C@H]12` [Example 432, (4R,5S,6R)-6-((R)-1-(2-(1H-tetrazol-1-yl)acetamido)ethyl)-3-((3S,5S)-5-(4-(2-guanidinoethyl)piperazine-1-carbonyl)pyrrolidin-3-ylthio)-4-methyl-7-oxo-1-azabicyclo[3.2.0]hept-2-ene-2-carboxylic acid], the MIC in experiment [1] (setting [5]) is 0.25 µg/mL (≈ 0.404 µM); in experiment [2] (setting [6]), 2 µg/mL (≈ 3.23 µM); in experiment [3] (setting [7]) it was 1 µg/mL (≈ 1.62 µM); in experiment [4] (setting [8]) it was 1 µg/mL (≈ 1.62 µM).

Regarding `C[C@@H](NC(=O)Cn1nnnc1C(C)(C)C)[C@H]1C(=O)N2C(C(=O)O)=C(S[C@@H]3CN[C@H](C(=O)N(C)C)C3)[C@H](C)[C@H]12` [Example 356, (4R,5S,6R)-6-((R)-1-(2-(5-tert-butyl-1H-tetrazol-1-yl)acetamido)ethyl)-3-((3S,5S)-5-(dimethylcarbamoyl)pyrrolidin-3-ylthio)-4-methyl-7-oxo-1-azabicyclo[3.2.0]hept-2-ene-2-carboxylic acid], the MIC in experiment [1] (setting [5]) is 1 µg/mL (≈ 1.82 µM); in experiment [2] (setting [6]), 4 µg/mL (≈ 7.29 µM); in experiment [3] (setting [7]), 16 µg/mL (≈ 29.2 µM); in experiment [4] (setting [8]), greater than 128 µg/mL.

In the case of `C[C@@H](NC(=O)Cn1cnnn1)[C@H]1C(=O)N2C(C(=O)O)=C(Sc3cnn(C[C@@H]4CCNC4)c3)[C@H](C)[C@H]12` [Example 593, (4R,5S,6R)-6-((R)-1-(2-(1H-tetrazol-1-yl)acetamido)ethyl)-4-methyl-7-oxo-3-(1-((R)-pyrrolidin-3-ylmethyl)-1H-pyrazol-4-ylthio)-1-azabicyclo[3.2.0]hept-2-ene-2-carboxylic acid], the MIC in experiment [1] (setting [5]) is 1 µg/mL (≈ 1.99 µM); in experiment [2] (setting [6]), 16 µg/mL (≈ 31.9 µM); in experiment [3] (setting [7]), 32 µg/mL (≈ 63.8 µM); in experiment [4] (setting [8]) it was 128 µg/mL (≈ 255 µM).

With `C[C@@H](NC(=O)Cn1cnnn1)[C@H]1C(=O)N2C(C(=O)O)=C(S[C@@H]3CN[C@H](C(=O)N4CC(NC(=N)N)C4)C3)[C@H](C)[C@H]12` [Example 566, (4R,5S,6R)-6-((R)-1-(2-(1H-tetrazol-1-yl)acetamido)ethyl)-3-((3S,5S)-5-(3-guanidinoazetidine-1-carbonyl)pyrrolidin-3-ylthio)-4-methyl-7-oxo-1-azabicyclo[3.2.0]hept-2-ene-2-carboxylic acid], the MIC came out at 0.06 µg/mL (≈ 0.107 µM) in experiment [1] (setting [5]), 0.5 µg/mL (≈ 0.89 µM) in experiment [2] (setting [6]), 0.5 µg/mL (≈ 0.89 µM) in experiment [3] (setting [7]) and 0.25 µg/mL (≈ 0.445 µM) in experiment [4] (setting [8]).

`C[C@@H](NC(=O)Cn1nnc(N)n1)[C@H]1C(=O)N2C(C(=O)O)=C(S[C@@H]3CN[C@H](C(=O)N(C)C)C3)[C@H](C)[C@H]12` [Example 315, (4R,5S,6R)-6-((R) - 1-(2-(5-amino-2H-tetrazol-2-yl)acetamido)ethyl)-3-((3S,5S)-5-(dimethylcarbamoyl)pyrrolidin-3-ylthio)-4-methyl-7-oxo-1-azabicyclo[3.2.0]hept-2-ene-2-carboxylic acid]: the MIC worked out at 0.125 µg/mL (≈ 0.246 µM) in experiment [1] (setting [5]), 4 µg/mL (≈ 7.88 µM) in experiment [2] (setting [6]), 2 µg/mL (≈ 3.94 µM) in experiment [3] (setting [7]) and 64 µg/mL (≈ 126 µM) in experiment [4] (setting [8]).

With `C[C@@H](NC(=O)Cn1cnnn1)[C@H]1C(=O)N2C(C(=O)O)=C(S[C@@H]3CN[C@H](C(=O)Nc4ccncc4)C3)[C@H](C)[C@H]12` [Example 402, (4R,5S,6R)-6-((R)-1-(2-(1H-tetrazol-1-yl)acetamido)ethyl)-4-methyl-7-oxo-3-((3S,5S)-5-(pyridin-4-ylcarbamoyl)pyrrolidin-3-ylthio)-1-azabicyclo[3.2.0]hept-2-ene-2-carboxylic acid], the minimal inhibitory concentration (MIC) was 0.06 µg/mL (≈ 0.111 µM) in experiment [1] (setting [5]), 1 µg/mL (≈ 1.85 µM) in experiment [2] (setting [6]), 1 µg/mL (≈ 1.85 µM) in experiment [3] (setting [7]) and 32 µg/mL (≈ 59.1 µM) in experiment [4] (setting [8]).

As for `C[C@@H](NC(=O)CNC(=N)N)[C@H]1C(=O)N2C(C(=O)O)=C(S[C@@H]3CN[C@H](C(=O)N4CC[C@@H](N)C4)C3)[C@H](C)[C@H]12` [Example 242], the MIC was determined as 2 µg/mL (≈ 3.83 µM) in experiment [1] (setting [5]), 16 µg/mL (≈ 30.6 µM) in experiment [2] (setting [6]), 2 µg/mL (≈ 3.83 µM) in experiment [3] (setting [7]) and 8 µg/mL (≈ 15.3 µM) in experiment [4] (setting [8]).

Regarding `C[C@@H](NC(=O)Cn1cnnn1)[C@H]1C(=O)N2C(C(=O)O)=C(S[C@@H]3CN[C@H](C(=O)N4CC(N)C(F)C4)C3)[C@H](C)[C@H]12` (single isomer, unassigned) [Example 478], the MIC in experiment [1] (setting [5]) was 0.125 µg/mL (≈ 0.227 µM); in experiment [2] (setting [6]), 8 µg/mL (≈ 14.5 µM); in experiment [3] (setting [7]) it was 1 µg/mL (≈ 1.81 µM); in experiment [4] (setting [8]), 8 µg/mL (≈ 14.5 µM).

As for `C[C@@H](NC(=O)Cn1cnnn1)[C@H]1C(=O)N2C(C(=O)O)=C(S[C@@H]3CN[C@H](C(=O)N4CCC5(CC4)CNC5)C3)[C@H](C)[C@H]12` [Example 368, (4R,5S,6R)-6-((R)-1-(2-(1H-tetrazol-1-yl)acetamido)ethyl)-3-((3S,5S)-5-(2,7-diazaspiro[3.5]nonane-7-carbonyl)pyrrolidin-3-ylthio)-4-methyl-7-oxo-1-azabicyclo[3.2.0]hept-2-ene-2-carboxylic acid], the minimum inhibitory concentration (MIC) in experiment [1] (setting [5]) turned out to be 0.25 µg/mL (≈ 0.436 µM); in experiment [2] (setting [6]), 2 µg/mL (≈ 3.49 µM); in experiment [3] (setting [7]), 2 µg/mL (≈ 3.49 µM); in experiment [4] (setting [8]), 1 µg/mL (≈ 1.74 µM).

For the compound `C[C@@H](NC(=O)[C@H]1CNCCN1)[C@H]1C(=O)N2C(C(=O)O)=C(S[C@@H]3CN[C@H](C(=O)N(C)C)C3)[C@H](C)[C@H]12` [Example 285], the MIC in experiment [1] (setting [5]) was 4 µg/mL (≈ 8.09 µM); in experiment [2] (setting [6]) it was 64 µg/mL (≈ 129 µM); in experiment [3] (setting [7]), 8 µg/mL (≈ 16.2 µM); in experiment [4] (setting [8]), 128 µg/mL (≈ 259 µM).

Regarding `C[C@@H](NC(=O)Cn1cnnn1)[C@H]1C(=O)N2C(C(=O)O)=C(S[C@@H]3CN[C@H](C(=O)N4C[C@H](N)[C@@H](O)[C@H]4CO)C3)[C@H](C)[C@H]12` [Example 549, (4R,5S,6R)-6-((R)-1-(2-(1H-tetrazol-1-yl)acetamido)ethyl)-3-((3S,5S)-5-((2R,3R,4S)-4-amino-3-hydroxy-2-(hydroxymethyl)pyrrolidine-1-carbonyl)pyrrolidin-3-ylthio)-4-methyl-7-oxo-1-azabicyclo[3.2.0]hept-2-ene-2-carboxylic acid], the MIC in experiment [1] (setting [5]) stood at 0.125 µg/mL (≈ 0.216 µM); in experiment [2] (setting [6]) it was 4 µg/mL (≈ 6.9 µM); in experiment [3] (setting [7]) it was 1 µg/mL (≈ 1.73 µM); in experiment [4] (setting [8]), 1 µg/mL (≈ 1.73 µM).

Take `C[C@@H](NC(=O)Cn1cnnn1)[C@H]1C(=O)N2C(C(=O)O)=C(S[C@@H]3CN[C@H](C(=O)N4C[C@H](N)C[C@@H]4CN)C3)[C@H](C)[C@H]12` [Example 473, (4R,5S,6R)-6-((R)-1-(2-(1H-tetrazol-1-yl)acetamido)ethyl)-3-((3S,5S)-5-((2R,4R)-4-amino-2-(aminomethyl)pyrrolidine-1-carbonyl)pyrrolidin-3-ylthio)-4-methyl-7-oxo-1-azabicyclo[3.2.0]hept-2-ene-2-carboxylic acid]: the MIC came out at 0.5 µg/mL (≈ 0.889 µM) in experiment [1] (setting [5]), 4 µg/mL (≈ 7.11 µM) in experiment [2] (setting [6]), 2 µg/mL (≈ 3.55 µM) in experiment [3] (setting [7]) and 4 µg/mL (≈ 7.11 µM) in experiment [4] (setting [8]).

As to `C[C@@H](NC(=O)Cn1cnnn1)[C@H]1C(=O)N2C(C(=O)O)=C(S[C@@H]3CN[C@H](C(=O)N4CCC5CNCCC54)C3)C[C@H]12` (stereo partly drawn) [Example 601, (5R,6R)-6-((R)-1-(2-(1H-tetrazol-1-yl)acetamido)ethyl)-3-((3S,5S)-5-(octahydro-1H-pyrrolo[3,2-c]pyridine-1-carbonyl)pyrrolidin-3-ylthio)-7-oxo-1-azabicyclo[3.2.0]hept-2-ene-2-carboxylic acid], the MIC in experiment [1] (setting [5]) came out at 2 µg/mL (≈ 3.57 µM); in experiment [2] (setting [6]), 2 µg/mL (≈ 3.57 µM); in experiment [3] (setting [7]) it was 64 µg/mL (≈ 114 µM); in experiment [4] (setting [8]), 128 µg/mL (≈ 229 µM).

For `C[C@@H](NC(=O)Cn1cnnn1)[C@H]1C(=O)N2C(C(=O)O)=C(SC3CN(C4=NCCS4)C3)[C@H](C)[C@@H]12` [Example 294], the MIC in experiment [1] (setting [5]) was found to be 0.06 µg/mL (≈ 0.122 µM); in experiment [2] (setting [6]), 1 µg/mL (≈ 2.03 µM); in experiment [3] (setting [7]), 1 µg/mL (≈ 2.03 µM); in experiment [4] (setting [8]), 16 µg/mL (≈ 32.5 µM).
